US20220315572A1, “SUBSTITUTED CYANOPYRROLIDINES WITH ACTIVITY AS USP30 INHIBITORS” (MISSION THERAPEUTICS LIMITED, priority 2019, published 2022)
Where two headings read alike, the source gives them in different places.

Columns and labels:
UCHL1 = biological target: T1, UCHL1 (Homo sapiens, UniProt P09936); test: DUB biochemical IC50 assay, UCHL1
T1 sequence (P09936 1-223): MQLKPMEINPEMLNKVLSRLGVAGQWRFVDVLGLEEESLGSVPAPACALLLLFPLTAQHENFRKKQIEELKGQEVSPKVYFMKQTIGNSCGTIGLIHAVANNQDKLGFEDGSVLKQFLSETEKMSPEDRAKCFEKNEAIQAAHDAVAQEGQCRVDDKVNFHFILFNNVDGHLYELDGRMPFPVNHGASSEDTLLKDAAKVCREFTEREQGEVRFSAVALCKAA

USP30 = biological target: T2, USP30 (Homo sapiens, UniProt Q70CQ3); test: USP30 biochemical IC50 assay (fluorescence polarisation)
T2 construct: purchased Boston Biochem E582
T2 sequence (Q70CQ3 57-517 limits assumed): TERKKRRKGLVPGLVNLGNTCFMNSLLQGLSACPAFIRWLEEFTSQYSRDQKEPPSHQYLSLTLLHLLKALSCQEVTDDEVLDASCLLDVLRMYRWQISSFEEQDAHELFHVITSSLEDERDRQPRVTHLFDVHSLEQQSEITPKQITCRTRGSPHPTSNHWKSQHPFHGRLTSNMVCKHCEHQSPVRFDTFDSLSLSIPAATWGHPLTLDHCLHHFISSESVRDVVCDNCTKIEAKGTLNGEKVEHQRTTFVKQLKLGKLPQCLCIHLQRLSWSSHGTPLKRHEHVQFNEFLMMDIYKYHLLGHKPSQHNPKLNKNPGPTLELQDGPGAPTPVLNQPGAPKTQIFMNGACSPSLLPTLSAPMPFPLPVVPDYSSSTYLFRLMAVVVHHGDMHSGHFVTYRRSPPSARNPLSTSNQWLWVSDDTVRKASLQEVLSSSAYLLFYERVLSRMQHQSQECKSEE
Description: Dilution plates were prepared at 21 times the final concentration (2100 μM for a final concentration of 100 μM) in 50% DMSO in a 96-well polypropylene V-bottom plate (Greiner #651201). A typical 8-point dilution series would be 100, 30, 10, 3, 1, 0.3, 0.1, 0.03 μM final. Reactions were performed in duplicate in black 384 well plates (small volume, Greiner 784076) in a final reaction volume of 21 μl. Either […] of 50% DMSO or diluted compound was added to the plate. USP30 (Boston Biochem #E582) was diluted in reaction buffer (40 mM Tris, pH 7.5, 0.005% Tween 20, 0.5 mg/ml BSA, 5 mM beta-mercaptoethanol) to achieve a final assay concentration of 4 nM, and 10 μl of diluted USP30 was added to the compound. Enzyme and compound were incubated for 30 min at room temp. Reactions were initiated by the addition of 50 nM of TAMRA labelled peptide linked to ubiquitin via an iso-peptide bond as fluorescence polarisation substrate. Reactions were read immediately after addition of substrate and following a 2-hour incubation at room temperature. Readings were performed on a Pherastar Plus (BMG Labtech). λ Excitation 540 nm; λ Emission 590 nm.

[1] = test system: USP2, USP10, USP16, USP21, USP22, USP25, USP28, USP35, USP46; test: DUB biochemical IC50 assays, nine DUBs; settings: for DUB selectivity preference for USP30 v 9 DUBs / IC50: range over the nine DUBs; for IC50: Ref. Ex. C excl. USP22, Ref. Ex. D excl. USP2, 46; for fold more potent against USP30 than against the nine DUBs, minimum: lowest of USP2, USP10, USP16, USP21, USP22, USP25, USP28, USP35, USP46
Cathepsins B, K, L, S, V = test: Cathepsin IC50, range over B, K, L, S, V; assay type: biochemical; settings: for Selectivity preference for USP30 v cathepsins: range over cathepsins B, S; for Selectivity preference for USP30 v cathepsins / fold more potent against USP30 than against the cathepsins, minimum: K, L; for IC50: range over the five cathepsins; for fold more potent against USP30 than against the cathepsins, minimum: lowest of cathepsins B, S and V
Cathepsin V = Cathepsin V (Homo sapiens, UniProt O60911); test: Cathepsin IC50, cathepsin V; assay type: biochemical
Cathepsin K = biological target: T3, Cathepsin K (Homo sapiens, UniProt P43235); test: Cathepsin IC50, cathepsin K; assay type: biochemical
T3 sequence (P43235 115-329): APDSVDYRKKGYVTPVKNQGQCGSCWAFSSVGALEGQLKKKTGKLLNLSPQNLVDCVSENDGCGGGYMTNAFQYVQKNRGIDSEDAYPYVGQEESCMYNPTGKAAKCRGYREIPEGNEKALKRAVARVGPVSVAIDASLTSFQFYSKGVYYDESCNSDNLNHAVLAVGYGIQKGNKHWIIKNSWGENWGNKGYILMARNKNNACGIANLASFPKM

Cathepsin L = Cathepsin L (Homo sapiens, UniProt P07711); test: Cathepsin IC50, cathepsin L; assay type: biochemical
Endogenous USP30 = biological target: T4, Endogenous USP30 (Homo sapiens, UniProt Q70CQ3); test: USP30 endogenous cellular target engagement western blot assay (Cell TE WB); assay type: cell-based; settings: Hela cells stably overexpressing YFP-Parkin, 1 hour
T4 construct: USP30 endogenous cellular target engagement western blot (WB) assay; endogenous in cells; host or cells: HeLa stably overexpressing YFP-Parkin
T4 sequence (Q70CQ3 1-517): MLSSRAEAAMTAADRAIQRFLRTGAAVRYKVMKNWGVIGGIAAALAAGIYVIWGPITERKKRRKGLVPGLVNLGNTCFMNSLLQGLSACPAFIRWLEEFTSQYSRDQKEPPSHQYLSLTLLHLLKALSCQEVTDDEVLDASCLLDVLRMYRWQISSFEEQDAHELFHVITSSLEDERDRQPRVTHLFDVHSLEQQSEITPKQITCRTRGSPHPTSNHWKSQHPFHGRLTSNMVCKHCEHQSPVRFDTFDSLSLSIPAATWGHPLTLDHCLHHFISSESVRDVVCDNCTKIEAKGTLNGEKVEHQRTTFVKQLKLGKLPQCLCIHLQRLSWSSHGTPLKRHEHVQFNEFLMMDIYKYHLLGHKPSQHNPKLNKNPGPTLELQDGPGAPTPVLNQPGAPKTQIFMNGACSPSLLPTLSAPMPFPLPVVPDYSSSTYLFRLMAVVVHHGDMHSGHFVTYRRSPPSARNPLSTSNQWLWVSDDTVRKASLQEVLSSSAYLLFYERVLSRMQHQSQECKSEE
Description: Hela cells stably overexpressing YFP-Parkin were seeded into 6 well dishes. Once adhered, cells were treated with appropriate concentrations of test compounds or vehicle control for 1 hour at 37° C., 5% CO2. Whole cell lysates were prepared by scraping the cells into cold PBS, centrifuging and lysing in lysis buffer (50 mM Tris-base, pH 7.5, 50 mM NaCl, 1% NP-40/Igepal CA-630, 2 mM MgCl2, 10% Glycerol, 5 mM beta-mercaptoethanol, cOmplete mini tablets EDTA free (Roche), PhosStop tablets (Roche)) for 10 mins. The equivalent of 20 μg of protein from the cleared cell lysate was incubated with a final conc of 2.5 μM HA-Ahx-Ahx-Ub-VME probe at room temperature. The reaction was stopped by addition of 5×SDS sample loading buffer and proteins separated by SDS PAGE and western blotting. USP30 was detected using an anti-USP30 Sheep S746D antibody (MRC PPU Reagents and Services) and a rabbit anti sheep secondary IgG (H+L) horseradish peroxidase conjugated (Thermo #31480) and visualised using ECL reagent (GE #RPN2109) on a GE LAS4000 imager. Target engagement was measured by quantitation of the bands corresponding to USP30 and USP30 bound to the Ub-VME probe and expression of this proportion compared to vehicle treated control.
Cell TE WB: USP30 endogenous cellular target engagement western blot (WB) assay. Assays the activity of compounds against USP30 in cells using an irreversible activity probe to monitor USP30 activity.

Cathepsin B = Cathepsin B (Homo sapiens, UniProt P07858); test: Cathepsin IC50, cathepsin B; assay type: biochemical
Cathepsin S = Cathepsin S (Homo sapiens, UniProt P25774); test: Cathepsin IC50, cathepsin S; assay type: biochemical
[2] = Reference Examples, read-out: USP30 IC50

Cathepsin V, sequence (O60911 114-334, species assumed): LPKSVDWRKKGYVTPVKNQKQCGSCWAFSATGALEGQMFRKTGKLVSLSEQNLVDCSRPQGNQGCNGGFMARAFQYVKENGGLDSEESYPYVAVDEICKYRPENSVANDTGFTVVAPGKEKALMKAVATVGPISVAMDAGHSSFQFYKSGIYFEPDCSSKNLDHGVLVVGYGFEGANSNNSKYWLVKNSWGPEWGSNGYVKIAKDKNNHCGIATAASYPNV
Cathepsin L, sequence (P07711 114-333, species assumed): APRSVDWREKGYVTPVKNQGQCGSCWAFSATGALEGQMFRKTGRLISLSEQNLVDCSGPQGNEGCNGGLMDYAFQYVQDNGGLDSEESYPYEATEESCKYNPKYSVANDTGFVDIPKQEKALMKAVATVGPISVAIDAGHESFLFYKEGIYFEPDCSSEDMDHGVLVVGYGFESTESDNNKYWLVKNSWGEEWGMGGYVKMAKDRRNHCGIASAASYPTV
Cathepsin S, sequence (P25774 115-331, species assumed): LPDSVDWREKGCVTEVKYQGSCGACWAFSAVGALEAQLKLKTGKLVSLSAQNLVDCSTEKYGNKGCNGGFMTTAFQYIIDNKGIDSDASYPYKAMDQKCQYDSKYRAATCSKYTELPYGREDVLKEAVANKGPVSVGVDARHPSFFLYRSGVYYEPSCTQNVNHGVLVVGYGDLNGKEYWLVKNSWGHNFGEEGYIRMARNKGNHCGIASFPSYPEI

SMILES	IC50 (UCHL1) [µM]	fold more potent against USP30 than UCHL1 (UCHL1) [fold]	IC50 (USP30; [2]) [µM]	IC50 (USP30; read-out: DUB IC50 (μM) USP30) [µM]	DUB selectivity preference for USP30 v 9 DUBs [1]	IC50 [1] [µM]	Selectivity preference for USP30 v cathepsins (Cathepsins B, K, L, S, V)	IC50 (Cathepsins B, K, L, S, V) [µM]	IC50 (Cathepsin V) [µM]	IC50 (Cathepsin K) [µM]	IC50 (Cathepsin L) [µM]	EC50 (Endogenous USP30) [µM]	DUB selectivity preference for USP30 v UCHL1 (UCHL1)	IC50 (Cathepsin B) [µM]	IC50 (USP30; USP30 biochemical IC50 assay, exemplary compounds, read-out: IC50) [µM]	IC50 (Cathepsin S) [µM]	fold more potent against USP30 than against the nine DUBs, minimum [1] [fold]	fold more potent against USP30 than against the cathepsins, minimum (Cathepsins B, K, L, S, V) [fold]
CC1CC(C(=O)Nc2ncc(-c3ccccc3)s2)CN1C#N (centres unmarked) [G, reference compound]	6.8	1.5	4.4	4.4														
COc1ccc(C#N)cc1-c1nnc(C(=O)N[C@@H]2C[C@@H](C)N(C#N)C2)o1 [Example 5, 5-(5-Cyano-2-methoxyphenyl)-N-((3R,5R)-1-cyano-5-methylpyrrolidin-3-yl)-1,3,4-oxadiazole-2-carboxamide]	> 300				360-8800	≥ 12.4	720-8800	24.5 to 300	162	24.5	> 300	0.072	8800	> 300	0.034	> 300		
COc1cccc(-c2cc(C(=O)N[C@@H]3CCN(C#N)C3)on2)c1 [A, reference compound]			0.07		2.7-141	0.19 to 9.9	11-126	0.79 to 8.8	5.8	0.79	2.8			4.5		8.8	2.7	
N#Cc1cccc(-c2ccn3c(C(=O)N[C@@H]4CCN(C#N)C4)cnc3c2)c1 [D]			0.041		4.6-124	0.19 to 5.1	56-168	2.3 to 6.9	3		2.3					6.9	4.6	56
N#CN1CCC(C(=O)Nc2nnc(-c3ccccc3)s2)C1 (centres unmarked) [F, reference compound]	3.2	4.6	0.7				0.34-14	0.24 to 9.8	0.82	0.86	0.24		4.6	9.8		2.1		0.34
